Measurements reported in PubChem BioAssay (NCI).
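Five concentrations, 48 hours, 96-well plates. TGI marks complete inhibition of growth.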

Experiments:
Test in all cases: NCI tumour cell line growth inhibition, 48 h
DMS 114 small cell lung = test system: DMS 114 small cell lung
DMS 273 small cell lung = test system: DMS 273 small cell lung
KM20L2 colon = test system: KM20L2 colon
LXFL 529 NSCLC = test system: LXFL 529 NSCLC
SNB-78 CNS = test system: SNB-78 CNS
XF 498 CNS = test system: XF 498 CNS
HOP-18 NSCLC = test system: HOP-18 NSCLC
P388 leukemia = test system: P388 leukemia
SN12K1 renal = test system: SN12K1 renal
RXF-631 renal = test system: RXF-631 renal
P388/ADR leukemia = test system: P388/ADR leukemia

SMILES	TGI (DMS 114 small cell lung)	TGI (DMS 273 small cell lung)	TGI (KM20L2 colon)	TGI (LXFL 529 NSCLC)	TGI (SNB-78 CNS)	TGI (XF 498 CNS)	TGI (HOP-18 NSCLC)	TGI (P388 leukemia)	TGI (SN12K1 renal)	TGI (RXF-631 renal)	TGI (P388/ADR leukemia)
CCCCCCCCC[C@@H]1C[C@H](O)[C@H](Cc2ccccc2)N1C(=O)OC(C)(C)C	32.4 µM	32.8 µM	34.5 µM	30.9 µM	41.3 µM	37 µM	–	–	–	–	–
O=[N+]([O-])c1cnccc1-n1nnc2ccccc21	26.6 µM	27.2 µM	> 100 µM	–	> 100 µM	27.1 µM	> 100 µM	30.3 µM	> 95.5 µM	–	–
COC(=O)C(Cc1cc(OC)c(OC)c(OC)c1)(NC(=O)c1ccccc1)P(=O)(OC)OC (stereo unspecified)	> 100 µM	> 100 µM	> 100 µM	> 100 µM	> 100 µM	> 100 µM	–	–	–	> 100 µM	–
O=C(O)c1cc2sc(C(=O)O)cc2s1	> 100 µM	> 100 µM	> 100 µM	> 100 µM	> 100 µM	> 100 µM	–	–	–	–	–
CSc1nc(NC2OC(CO)C(O)C(O)C2O)c(N)c(=O)[nH]1 (stereo unspecified)	> 100 µM	> 100 µM	> 100 µM	–	> 100 µM	> 100 µM	> 100 µM	> 100 µM	> 100 µM	–	> 100 µM
